According to patent US8969004B2, “Detection of immobilized nucleic acid” (Life Technologies Corporation, priority 2004, dated 2015):
Entries after “also recorded” stand apart in the source; their conditions may differ. Like-named read-outs stand apart in the source and are kept apart here.

Tests used:
[1] = tested on: Salmonella typhimurium histidine auxotrophs TA97a, TA98, TA100, TA102, TA1535, TA1537 and TA1538; test: Salmonella/Mammalian Microsomal Reverse Mutation Assay (Ames Test); assay type: cell-based; details: for increase in revertants compared to vehicle control (DMSO), TA97a: tester strain TA97a; for increase in revertants compared to vehicle control (DMSO), TA98: tester strain TA98; for increase in revertants compared to vehicle control (DMSO), TA100: tester strain TA100; for increase in revertants compared to vehicle control (DMSO), TA102: tester strain TA102; for increase in revertants compared to vehicle control (DMSO), TA1535: tester strain TA1535; for increase in revertants compared to vehicle control (DMSO), TA1537: tester strain TA1537; for increase in revertants compared to vehicle control (DMSO), TA1538: tester strain TA1538; for Ames test mutagenicity classification, early screens: early screens of nucleic acid complexing compounds
Method: The Ames assay was performed using the method described by Ames (Ames et al Mutation Research 31 (1975) 347-364; Levin et al. PNAS 79 (1982) 7445-7449; Maron and Ames, Mutation Research 113 (1983) 173-215). Tester stains used were Salmonella typhimurium histidine auxotrophs TA97a, TA98, TA100, TA102, TA1535, TA1537 and TA1538. […] The test compounds, test vehicle and S9 (when appropriate) were combined with molten agar and then overlaid over a minimal agar plate. Following incubation at 37° C., revertant colonies were counted. When S9 was not used, 100 μl of tester strain and 50 μl of control or test compound were added to 2.5 ml of selective top agar. When S9 was used, 500 μl of S9 mix, 100 μl of tester strain and 50 μl of control or test compound was added to 2.0 ml of selective top agar. The top agar was then overlaid onto the surface of 25 ml of minimal bottom agar contained in a 15×100 mm Petri dish. The inverted plates were incubated for 52±4 hr at 37±2° C.
The number of revertants was counted and the test compounds were either considered non-mutagenic or mutagenic. The criteria for determining if a test compound was mutagenic was based on a 2-fold increase in mean revertants per plate for at least one tester strain (TA97a, TA98, TA100 and TA102) over the mean revertants per plate of the appropriate vehicle control. For tester strains TA1535, TA1537 and TA 1538 a positive mutant was identified by a 3-fold increase in mean revertants per plate compared to the appropriate vehicle control. In addition, the increase in the mean number of revertants per plate needed to be accompanied by a dose response to increasing concentrations of the test compound. […] Thiazole orange was also considered mutagenic for two of the tester strains in the absence of S9. Thus, compared to ethidium bromide, thiazole orange is 3-4 times less mutagenic and Compound 1 is 4-5 times less mutagenic. Ethidium bromide and Sybr Green I had previously been tested wherein Sybr Green I was considered a weak mutagen (Singer et al. Mutation Research 439 (1999) 37-47).

[2] = tested on: Syrian hamster embryo (SHE) cells; test: In Vitro Transformation of Syrian Hamster Embryo (SHE) Cells by 7-Day Exposure Screening Assay
[3] = tested on: Salmonella typhimurium histidine auxotrophs TA97a, TA98, TA100, TA102, TA1535, TA1537 and TA1538; details: cited from earlier work
[4] = tested on: cultured human lymphocytes; test: Screening Assay for Chromosomal Aberrations in Cultured Human Peripheral Blood Mononuclear Cells (PBMC); assay type: cell-based
Method: Human venous blood from healthy adult volunteers was drawn in heparinized vacutainers. The whole blood cultures were initiated in 15 ml centrifuge tubes by adding approximately 0.3 ml of fresh heparinized blood into a sufficient volume of culture medium, to that the final volume was 5 mL in the assay with and without metabolic activation after the addition of the test compound. The culture medium was RPMI 1640 supplemented with approximately 20% heat-inactivated fetal bovine serum (FBS), penicillin (100 units/mL), streptomycin (100 μg/mL), L-glutamine (2 mM) and 2% phytohemagglutinin M (PHA-M). The cultures were incubated with loose caps at 37° C.±2° C. in a humidified chamber of approximately 5% CO2 in air.
The in vitro metabolic activation system consisted of a rat liver post-mitochondrial fraction (S9) and an energy-producing system (NADPH plus isocitric acid) (Maron and Ames, 113 Mutation Research (1983) 173-215).
Two days after culture initiation, the cultures were treated with the test compounds. […]
At the end of the incubation period the cultures were centrifuged, the supernatant discarded, and the cells swollen with 75 mM KCl, fixed in methanol:glacial acetic acid (3:1 v/v), dropped onto glass slides and air dried. The slides were stained with 5% Giemsa and air dried and then analyzed for mitotox index, chromosomal aberrations including polyploidy and endoreduplication.

[5] = tested on: Syrian hamster embryo (SHE) cells; details: for RPE (relative plating efficiency) / MT Frequency (%): Syrian hamster, 7 day
DNA in a 1% agarose gel = test: Detection of DNA separated and immobilized in an agarose gel; details: for ability to detect nucleic acid immobilized in a gel by electrophoresis: excited with UV light, about 300 nm
[6] = Hazardous Waste Screening Test (toxicity to aquatic life); assay type: in vivo, Pimephakes promelas; details: fathead minnow (Pimephakes promelas), in vivo, other: exposure in tank water containing the compound; fathead minnows; 96 hour exposure
Method: (§1) Compound 1 was tested to determine whether or not the compound was hazardous or toxic to aquatic life. Ten fathead minnows (Pimephakes promelas) were placed each in a 8 liter tank containing vehicle control and a concentration of Compound 1 at 250 mg/L, 500 mg/L and 750 mg/L. After a 96 hour exposure period the number of viable minnows were counted. The survival rate of the minnows for the control and Compound 1 was 100%. Thus, compound 1 has a LC50 value […], which is classified as not hazardous under CCR Title 22 acute toxicity to aquatic life.

[7] = tested on: fathead minnows (Pimephakes promelas); test: as above; assay type: in vivo
Method: as §1

[8] = NPDES testing for compliance with the Clean Water Act
Method: The testes were performed according to EPA protocols cited in Table 9.

[9] = tested on: MRC5 human lung fibroblast cells; test: Cell Permeability on Live Eukaryotic Cells; assay type: cell-based; details: 0.5, 1.0, 5.0 and 10.0 μM; 5 minutes at 37° C.; fluorescence microscopy
Method: MRC5 human lung fibroblast cells were harvested and grown in complete culture media (DMEM+10% FBS) for one day after seeding coverslips. Cells were then removed from complete media and placed in Hank's balanced salt solution w/sodium bicarbonate (HBSS) supplemented with 5 mM HEPES, 100 uM L-glutamine and 100 uM succinate containing varying concentrations of Compound 1. Concentrations tested included 0.5, 1.0, 5.0 and 10.0 μM. Cells were incubated for 5 minutes at 37° C./[…] Cells were washed 3×30 seconds in HBSS and mounted on microscope slides in HBSS and sealed with paraffin. After mounting, slides were examined on a Nikon Eclipse 800 upright fluorescent microscope and imaged with standard FITC and TRITC filter sets, a Princeton Instrument MicroMax cooled CCD camera, and Universal Imaging MetaMorph imaging software. […] Signal associated with Compound 1 is detectable with both FITC and TRITC filter sets with greater signal intensity using the FITC set. Regardless of concentration, nucleolar labeling seems to be the most prominent and appears to become slightly more prominent at lower concentrations. Off cell background was minimal in all cases.

[10] = in the presence of S9 (rat liver extract)

Structure (SMILES) | Ames test mutagenicity classification [1, 10] | increase in revertants compared to vehicle control (DMSO), TA97a [1] | increase in revertants compared to vehicle control (DMSO), TA98 [1] | increase in revertants compared to vehicle control (DMSO), TA100 [1] | increase in revertants compared to vehicle control (DMSO), TA102 [1] | increase in revertants compared to vehicle control (DMSO), TA1535 [1] | increase in revertants compared to vehicle control (DMSO), TA1537 [1] | increase in revertants compared to vehicle control (DMSO), TA1538 [1] | Ames test mutagenicity classification, early screens [1] | RPE (relative plating efficiency) ([5]; 0.04 μg/mL) | RPE (relative plating efficiency) ([5]; 0.26 μg/mL) | ability to detect nucleic acid immobilized in a gel by electrophoresis (DNA in a 1% agarose gel) | also measured
CC[n+]1c(-c2ccccc2)c2cc(N)ccc2c2ccc(N)cc21 [Ethidium bromide, ethidium bromide] | mutagenic | 4.4 | 68.0 | 1.6 | 2.0 | 1.4 | 15 | 80 | – | – | – | – | RPE (relative plating efficiency) ([2]; 0.200 μg/mL): 85%; RPE (relative plating efficiency) ([2]; 0.400 μg/mL): 66%; RPE (relative plating efficiency) ([2]; 0.800 μg/mL): 28%; Transformation Test, Syrian hamster embryo (SHE) cells: result ([2]; morphological transformation vs vehicle control): positive; Ames test mutagenicity classification (previously tested, literature) ([3]; McCann et al. 1975, Singer et al. 1999): mutagenic; Chromosomal Aberrations Test, cultured human peripheral blood lymphocytes: result ([4]; with and without S9 metabolic activation): negative
CCCN(CCCN(C)C)c1cc(/C=C2/Sc3ccccc3N2C)c2ccccc2[n+]1-c1ccccc1 [Sybr Green I] | – | – | – | – | – | – | – | – | – | – | – | – | Ames test mutagenicity classification (previously tested, literature) [3]: weak mutagen
CN1C=C/C(=C\c2sc3ccccc3[n+]2C)c2ccccc21 [Thiazole orange, thiazole orange] | mutagenic | 6.9 | 6.4 | 2.2 | 4.7 | 1.5 | 17.4 | 7.8 | either mildly mutagenic or non-mutagenic | 97% | 25% | able to detect nucleic acid | Ames test mutagenicity classification ([1]; in the absence of S9, two of the tester strains): mutagenic; Chromosomal Aberrations Test, cultured human peripheral blood lymphocytes: result [4]: negative; Transformation Test, Syrian hamster embryo (SHE) cells: result [5]: positive; RPE (relative plating efficiency) ([5]; 0.15 μg/mL): 52%
CCC[n+]1ccc(/C=C2\Sc3ccccc3N2C)c2ccccc21 [Compound 1] | mild or non-mutagenic; also recorded: Weakly positive | 3.3 | 3.0 | 1.7 | 3.7 | 1.8 | 1.8 | 3.7 | either mildly mutagenic or non-mutagenic | 97% | 25% | able to detect nucleic acid | times less mutagenic compared to ethidium bromide ([1]; Ames test): 4-5 times; LC50 at 96 h [6]: > 500 µg/mL; survival rate of the minnows ([7]; 250 mg/L, 500 mg/L and 750 mg/L, 96 hour exposure): 100%; hazard classification, acute toxicity to aquatic life ([7]; CCR Title 22): not hazardous; also recorded: non-hazardous to aquatic life; compliance with the Clean Water Act and NPDES regulations [8]: complies; MT Frequency (%) ([5]; 0.04 μg/mL): 0.731%; MT Frequency (%) ([5]; 0.05 μg/mL): 0.442%; RPE (relative plating efficiency) ([5]; 0.05 μg/mL): 120%; MT Frequency (%) ([5]; 0.2 μg/mL): 0.313%; RPE (relative plating efficiency) ([5]; 0.2 μg/mL): 85%; MT Frequency (%) ([5]; 0.26 μg/mL): 0.294%; MT Frequency (%) ([5]; 0.3 μg/mL): 0.144%; RPE (relative plating efficiency) ([5]; 0.3 μg/mL): 59%; MT Frequency (%) ([5]; 0.4 μg/mL): 1.304%; RPE (relative plating efficiency) ([5]; 0.4 μg/mL): 66%; MT Frequency (%) ([5]; 0.8 μg/mL): 0.635%; RPE (relative plating efficiency) ([5]; 0.8 μg/mL): 28%; cell permeability in live cells [9]: cell permeable; sensitivity of nucleic acid detection in a gel (DNA in a 1% agarose gel; 1% agarose gel, post-stained 30, 60 and 90 minutes, 1 μM in TBE, 62.5 ng to 30.52 pg DNA): at least as sensitive as ethidium bromide
